Assays:
Type in all cases: in vivo
[1] = test system: diamondback moth (Plutella xylostella); assay: Insecticidal effect on diamondback moth (Test Example 1); conditions: diamondback moth; judged by the mortality criterion of Test Example 1
How it was run: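 Chinese cabbage seedlings carrying eggs laid by released adult moths were immersed in treatment, air-dried and held at 25° C. Hatched insects were counted six days after immersion, and mortality was calculated and scored against a fixed criterion. Three replicate groups of 10 insects were used.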

[2] = test system: common cutworm (Spodoptera Litura); assay: Insecticidal effect on common cutworm (Test Example 2); conditions: 500 ppm; cabbage leaf immersed; second-instar larvae of common cutworm; eight days after inoculation; 25° C.
How it was run: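 2nd-instar larvae on air-dried treatment, closed dish, 25° C; dead/alive counted at day 8. Mortality calculated, graded by criterion. 3 × 10 insects.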

[3] = test system: rice leafroller (Cnaphalocrocis medinalis); assay: Insecticidal effect on rice leafroller (Test Example 3); conditions: 500 ppm; rice lamina immersed; third-instar larvae of rice leafroller; four days after inoculation; 25° C., humidity 70%
How it was run: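 Groups of 10 third-instar larvae, in triplicate, are placed on air-dried lamina resting on wet filter paper. Incubation runs four days at 25° C with 70% humidity before survivors and dead are tallied.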

For Cc1c(NC(=O)c2cccc(I)c2C(=O)NC(C)C)cccc1C(F)(F)F [compound 370], the “Insecticidal effect, Test Example 1” value [1] was “A (100)”, the “Insecticidal effect, Test Example 2” value [2] was “A (100)” and the “Insecticidal effect, Test Example 3” value [3] was “A (100)”.
For Cc1cc(C(F)(F)F)ccc1NC(=O)c1cccc(I)c1C(=O)NC(C)C [compound 371], the “Insecticidal effect, Test Example 1” value [1] was “A (100)”, the “Insecticidal effect, Test Example 2” value [2] was “A (100)” and the “Insecticidal effect, Test Example 3” value [3] was “A (100)”.
Cc1cc(C(F)(F)C(F)(F)F)ccc1NC(=O)c1cccc(I)c1C(=O)NC(C)C [compound 372, 3-iodo-N^1-(4-pentafluoroethyl-2-methylphenyl)-N^2-isopropyl-phthalic acid diamide] was tested, and the “Insecticidal effect, Test Example 1” value [1] was “A (100)”, the “Insecticidal effect, Test Example 2” value [2] was “A (100)” and the “Insecticidal effect, Test Example 3” value [3] was “A (100)”.
With Cc1cc(C(F)(F)C(F)(F)C(F)(F)F)ccc1NC(=O)c1cccc(I)c1C(=O)NC(C)C [compound 373] the “Insecticidal effect, Test Example 1” value [1] was “A (100)”, the “Insecticidal effect, Test Example 2” value [2] was “A (100)” and the “Insecticidal effect, Test Example 3” value [3] was “A (100)”.
Cc1cc(C(F)(C(F)(F)F)C(F)(F)F)ccc1NC(=O)c1cccc(I)c1C(=O)NC(C)C [compound 374] was tested, and the “Insecticidal effect, Test Example 1” value [1] was “A (100)”, the “Insecticidal effect, Test Example 2” value [2] was “A (100)” and the “Insecticidal effect, Test Example 3” value [3] was “A (100)”.
For Cc1cc(C(F)(F)C(F)(F)C(F)(F)C(F)(F)F)ccc1NC(=O)c1cccc(I)c1C(=O)NC(C)C [compound 375], the “Insecticidal effect, Test Example 1” value [1] was “A (100)”, the “Insecticidal effect, Test Example 2” value [2] was “A (100)” and the “Insecticidal effect, Test Example 3” value [3] was “A (100)”.
For COc1ccc(NC(=O)c2cccc(I)c2C(=O)NC(C)C)c(C)c1C [compound 378], the “Insecticidal effect, Test Example 1” value [1] was “A (100)”, the “Insecticidal effect, Test Example 2” value [2] was “D (79-50)” and the “Insecticidal effect, Test Example 3” value [3] was “A (100)”.
In the case of Cc1cc(OCC(F)(F)F)ccc1NC(=O)c1cccc(I)c1C(=O)NC(C)C [compound 379], the “Insecticidal effect, Test Example 1” value [1] is reported as “A (100)”, the “Insecticidal effect, Test Example 2” value [2] is reported as “A (100)” and the “Insecticidal effect, Test Example 3” value [3] is reported as “A (100)”.
In the case of Cc1cc(OC(F)(F)C(F)(F)Br)ccc1NC(=O)c1cccc(I)c1C(=O)NC(C)C [compound 380], the “Insecticidal effect, Test Example 1” value [1] is reported as “A (100)”, the “Insecticidal effect, Test Example 2” value [2] is reported as “A (100)” and the “Insecticidal effect, Test Example 3” value [3] is reported as “A (100)”.
Cc1cc(OC(F)(F)C(F)(Cl)Cl)ccc1NC(=O)c1cccc(I)c1C(=O)NC(C)C [compound 381] was tested, and the “Insecticidal effect, Test Example 1” value [1] was “A (100)”, the “Insecticidal effect, Test Example 2” value [2] was “A (100)” and the “Insecticidal effect, Test Example 3” value [3] was “A (100)”.
In the case of CC(C)NC(=O)c1c(I)cccc1C(=O)Nc1ccc(OC(F)F)c(F)c1 [compound 382], the “Insecticidal effect, Test Example 1” value [1] is reported as “A (100)”, the “Insecticidal effect, Test Example 2” value [2] is reported as “B (99-90)” and the “Insecticidal effect, Test Example 3” value [3] is reported as “A (100)”.
For CC(C)NC(=O)c1c(I)cccc1C(=O)Nc1ccc(OC(F)F)c(OC(F)F)c1 [compound 385], the “Insecticidal effect, Test Example 1” value [1] was “A (100)”, the “Insecticidal effect, Test Example 2” value [2] was “B (99-90)” and the “Insecticidal effect, Test Example 3” value [3] was “A (100)”.
With Cc1cc(OC(F)(F)F)ccc1NC(=O)c1cccc(I)c1C(=O)NC(C)C [compound 386] the “Insecticidal effect, Test Example 1” value [1] was “A (100)”, the “Insecticidal effect, Test Example 2” value [2] was “A (100)” and the “Insecticidal effect, Test Example 3” value [3] was “A (100)”.
Cc1cc(OC(F)F)ccc1NC(=O)c1cccc(I)c1C(=O)NC(C)C [compound 387, N^1-(4-difluoromethoxy-2-methylphenyl)-3-iodo-N^2-isopropylphthalic acid diamide] was tested, and the “Insecticidal effect, Test Example 1” value [1] was “A (100)”, the “Insecticidal effect, Test Example 2” value [2] was “A (100)” and the “Insecticidal effect, Test Example 3” value [3] was “A (100)”.
